“Also recorded” adds a separate entry of the source. Read-outs that look alike come from different tables or passages of the source.

Data set [1] can be described thus: Evaluation of antioxidants for LEV stability in raw tablet compositions (Example 6). The procedure: The following procedures were used to identify the preferred antioxidant(s) suitable stabilizing LEV against oxidative degradation.
A powder blend containing the following ingredients in the amounts indicated was prepared.
A printing fluid containing the following ingredients in the amounts indicated was prepared.
For example, the amount of antioxidant would be “(IIG daily limit)/2” for a 1000 mg tablet administered twice daily. It should be understood that IIG limits are periodically changed by regulatory agencies. Accordingly, the limits specified below should be considered approximations and not as absolute limits to the amount of antioxidant that can be included in a dosage form.
The antioxidant was mixed with 6 mL of printing fluid. That mixture was then mixed with 30 g of powder blend to form a raw tablet composition, each of which was exposed to the following conditions: Condition 1—store composition at 70 C in tightly sealed glass jar; Condition 2—store composition at 50 C in loosely covered glass jar; and Condition 3—store composition at 40 C/75% RH in open glass jar.
The samples were subsequently analyzed by HPLC/MS and the identity of two key degradants was determined by comparison to standards. The key degradants were levetiracetam acid and oxo-levetiracetam.

For data set [2] the following is noted: accelerated (60° C.) stress: acidic, alkaline, aqueous, oxidative, thermal or photo; Shah 2012; cited from earlier work.
Data set [3] is described as follows: Oxidative degradation of LEV in 3DP dosage form, HPLC/MS. It counts as physicochemical. Particulars: antioxidant absent, oxidative excipient (povidone or silica with peroxide impurity) present. On the procedure: The stability of LEV to oxidative degradation when included in a 3DP dosage form of the invention was determined by exposing finished dosage forms to heat. The formation of degradants was observed and monitored by HPLC/MS as detailed below. […] Povidone and silica, however, are important functional ingredients. Accordingly, the invention provides a stable rapidly dispersible dosage form comprising LEV, oxidative excipient, antioxidant, binder and disintegrant, wherein the matrix comprises 0.1% by wt or less of an oxidative degradant of LEV after storage for six months at 21° C. and 75% RH.
The following procedures were used to analyze three-dimensionally printed solid porous orodispersible matrices and in support of drug-stability studies.
Samples were prepared by transferring approximately 380 mg of sample to a 50-mL volumetric flask with 30 mL of Diluent. The sample was sonicated for 10 minutes then filled to volume with Diluent. A portion was filtered through a 0.22 μm nylon filter, discarding the first 3-5 mL.
Mass spectrophotometry was conducted by directly infusing a sodium formate solution into the mass spectrometer through the lock spray at 100 μL/min using a syringe pump. The sodium formate peak at m/z 158.9646126 was used for accurate mass analysis. The accurate masses were used for elemental composition analysis using the MassLynx software. […]

The conditions of data set [4]: cited from earlier work.
Setting [5] is: antioxidant at half IIG daily limit in raw tablet composition, 70 C sealed, 50 C loosely covered, 40 C/75% RH open.

With `COc1ccc(O)c(C(C)(C)C)c1` [BHA, Butylated hydroxyanisole], the “stability against oxidative degradation and color formation” value (shortened to “stability”) in data set [1] (setting [5]) was “improved stability against oxidative degradation and against color formation; also recorded: best results”.

On to `CC[C@@H](C(N)=O)N1CCCC1=O` [Levetiracetam, (S)-2-(2-oxopyrrolidin-1-yl)butanamide], for which the degradation under stress entry in data set [2] is reported as “substantial degradation”. For the same compound, the “oxidative degradation of LEV in 3DP dosage form exposed to heat” value in data set [3] is given as “undergoes oxidative degradation to form oxo-levetiracetam”. Further, the solubility in acetonitrile in data set [4] (acetonitrile) is 5.7 g/100 mL. Also, the solubility in chloroform in data set [4] (chloroform) was 65.3 g/100 mL. In data set [4] (ethanol), the solubility in ethanol is recorded as 16.5 g/100 mL. In data set [4] (methanol), the solubility in methanol is 53.6 g/100 mL. For the same compound, the solubility in n-hexane result in data set [4] (n-hexane) is “practically insoluble”. Further, in data set [4] (water), the solubility in water is 104.0 g/100 mL.

Take `Cc1c(C)c2c(c(C)c1O)CC[C@@](C)(CCC[C@H](C)CCC[C@H](C)CCCC(C)C)O2` [Vitamin E, Alpha-tocopherol]: the “stability” value in data set [1] was “improved stability against oxidative degradation and against color formation”.

Take `CSCC[C@H](N)C(=O)O` [methionine, Methionine]: the “stability” value in data set [1] is “improved stability against oxidative degradation and against color formation”.

For the compound `O=S([O-])O.[Na+]` [sodium bisulfite, Sodium bisulfite], the “stability” value in data set [1] (setting [5]) was “improved stability against oxidative degradation and against color formation”; in data set [1] (antioxidant at half IIG daily limit in raw tablet composition, 70 C sealed, 50 C loosely covered, 40 C/75% RH open, listed as Sodium bisulfite), “best results”.

As to `O=S([O-])[O-].[Na+].[Na+]` [sodium sulfite, Sodium sulfite], the “stability” value in data set [1] (setting [5]) was “improved stability against oxidative degradation and against color formation; also recorded: best results”.

The values are drawn from patent US9669009B2, “Rapid disperse dosage form containing levetiracetam” (APRECIA PHARMACEUTICALS COMPANY, priority 2013, dated 2017).
